The target of one assay is human GPR40 (Homo sapiens, UniProt O14842). Briefly: Calcium flux (FLIPR, Fluo-8) agonist assay in CHO cells stably expressing human GPR40. It is filed as cell-based. The settings on record: for % FFA1 activation at 5 μM: relative to GPR40 activation by 20 μM of GW9509, n = 2. On the procedure: Determination of agonistic activity of compounds against FFA1 (GPR40) receptor
CHO cells stably expressing human GPR40 (stable CHO-GPR40 line created at Enamine Ltd., Kyiv, Ukraine) were seeded (12 500 cells/well) into 384-well black-wall, clear-bottom microtiter plates 24 h prior to assay. Cells were loaded for 1 h with fluorescent calcium dye (Fluo-8 Calcium Assay kit, Abcam, ab112129, Cambridge, UK) and tested using fluorometric imaging plate reader (FLIPR Tetra® High Throughput Cellular Screening System, Molecular Devices Corp., Sunnyvale, CA). Maximum change in fluorescence over base line was used to determine agonist response. A potent and selective agonist for FFA1 (GPR40) GW9508 (Selleckchem, S8014) was tested with the test compounds as a positive control. Concentration response curve data were fitted using Molecular Devices ScreenWorks® System Control Software (Molecular Devices). The half-maximal effective concentration was determined from these curves plotted in “% FFA1 activation − log[drug]” coordinates and % maximum efficacy was related to that of the reference compounds GW9508.
(A change in cytosolic calcium serves as a functional read-out for many receptors and channels.)

The subject of assay [1] is FFA1. Further details: method as in PMID 24900210. The settings on record: cited from earlier work.
The subject of assay [2] is FFA1. The settings on record: cited from earlier work.
Setting [3] is: dose-response (% FFA1 activation) mode, read-out: EC50.

The source of these data is article PMC6021034, “Novel FFA1 (GPR40) agonists containing spirocyclic periphery: polar azine periphery as a driver of potency” (Journal of Enzyme Inhibition and Medicinal Chemistry, 2016).

Where two headings read alike, the source gives them in different places.

Sequence of human GPR40 (O14842 whole entry): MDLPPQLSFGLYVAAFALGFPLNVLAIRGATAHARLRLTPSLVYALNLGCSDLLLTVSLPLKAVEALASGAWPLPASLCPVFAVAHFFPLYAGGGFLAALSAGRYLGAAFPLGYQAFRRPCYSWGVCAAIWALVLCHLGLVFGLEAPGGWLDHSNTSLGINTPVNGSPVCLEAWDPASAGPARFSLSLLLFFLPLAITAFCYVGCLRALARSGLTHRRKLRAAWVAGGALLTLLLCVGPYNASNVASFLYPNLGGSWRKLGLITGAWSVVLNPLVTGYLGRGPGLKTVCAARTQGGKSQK

By EC50 is commonly meant the concentration giving half of the maximal effect. With `Cl.Cl.O=C(O)CCc1ccc(OCc2ccc(CN3CCC4(CC3)CC(N3CCOCC3)CCO4)cc2)cc1` (stereo not shown) [Compound 4f, 3-[4-({4-[(4-Morpholin-4-yl-1-oxa-9-azaspiro[5.5]undec-9-yl)methyl]benzyl}oxy)phenyl]propanoic acid dihydrochloride], at human GPR40, the “% FFA1 activation at 5 μM” value is on record as 10.2%. For the same compound, on human GPR40 (setting [3]), the EC50 was more than 20 µM.

For orientation: Emax means the greatest response seen or fitted, relative to the assay's reference. Take `Cl.Cl.O=C(O)CCc1ccc(OCc2ccc(CN3CCC4(CC3)CC(Oc3ccccn3)CCO4)cc2)cc1` (stereo not shown) [Compound 4c, 3-{4-[(4-{[4-(Pyridin-2-yloxy)-1-oxa-9-azaspiro[5.5]undec-9-yl]methyl}benzyl)oxy]phenyl}propanoic acid dihydrochloride]: at human GPR40, the “% FFA1 activation at 5 μM” value worked out at 61.4%. Besides, the Emax at human GPR40 (CHO, maximum efficacy relative to GPR40 activation by 20 μM of GW9509, n = 2) is 61%. At human GPR40 (Table 2, compounds investigated in this work, read-out: FFA1 EC50), the EC50 is 0.9 µM.

As to `Cc1cc(OCCCS(C)(=O)=O)cc(C)c1-c1cccc(COc2ccc3c(c2)OC[C@H]3CC(=O)O)c1` [TAK-875, fasiglifam], the EC50 in the assay on FFA1 [1] is 0.014 µM.

Turning to `Cl.Cl.O=C(O)CCc1ccc(OCc2ccc(CN3CCC4(CC3)CC(CC(=O)NCc3cccnc3)CCO4)cc2)cc1` (stereo not shown) [Compound 4i, 3-[4-({4-[(4-{2-Oxo-2-[(pyridin-3-ylmethyl)amino]ethyl}-1-oxa-9-azaspiro[5.5]undec-9-yl)methyl]benzyl}oxy)phenyl]propanoic acid dihydrochloride], the “% FFA1 activation at 5 μM” value at human GPR40 worked out at 11.6%. Also, the EC50 at human GPR40 (setting [3]) is more than 20 µM.

For the compound `Cl.Cl.O=C(O)CCc1ccc(OCc2ccc(CN3CCC4(CC3)CC(Oc3ncccn3)CCO4)cc2)cc1` (stereo not shown) [Compound 4b, 3-{4-[(4-{[4-(Pyrimidin-2-yloxy)-1-oxa-9-azaspiro[5.5]undec-9-yl]methyl}benzyl)oxy]phenyl} propanoic aciddihydrochloride], at human GPR40, the “% FFA1 activation at 5 μM” value is reported as 80.0%. Further, at human GPR40 (setting [3]), the EC50 turned out to be 1.62 µM. At human GPR40 (maximum efficacy relative to GPR40 activation by 20 μM of GW9509, n = 2), the “% Efficacy” value amounted to 80%.

On to `O=C(O)CCc1ccc(OCc2ccc(CN3CCC4(CCCCO4)CC3)cc2)cc1` [Compound 7], for which the EC50 in the assay on FFA1 [2] (reported earlier) was more than 20 µM. In the assay on FFA1 [2] (tested earlier), the “FFA1 agonist activity (in words)” value is “inactive”.

`Cl.Cl.O=C(O)CCc1ccc(OCc2ccc(CN3CCC4(CC3)CC(Oc3ccncc3)CCO4)cc2)cc1` (stereo not shown) [Compound 4d, 3-{4-[(4-{[4-(Pyridin-4-yloxy)-1-oxa-9-azaspiro[5.5]undec-9-yl]methyl}benzyl)oxy]phenyl}propanoic acid dihydrochloride]: the “% FFA1 activation at 5 μM” value at human GPR40 was found to be 13.6%. For the same compound, the EC50 at human GPR40 (setting [3]) is more than 20 µM.

For the compound `Cl.Cl.O=C(O)CCc1ccc(OCc2ccc(CN3CCC4(CC3)CC(CC(=O)NCc3ccncc3)CCO4)cc2)cc1` (stereo not shown) [Compound 4h, 3-[4-({4-[(4-{2-Oxo-2-[(pyridin-4-ylmethyl)amino]ethyl}-1-oxa-9-azaspiro[5.5]undec-9-yl)methyl]benzyl}oxy)phenyl]propanoic acid dihydrochloride], the “% FFA1 activation at 5 μM” value at human GPR40 is reported as 10.0%. At human GPR40 (setting [3]), the EC50 was more than 20 µM.

In the case of “3-{4-[(4-{[4-(Pyrazin-2-yloxy)-1-oxa-9-azaspiro[5.5]undec-9-yl]methyl}benzyl)oxy]phenyl}propanoic acid dihydrochloride [Compound 4a]”, the “% FFA1 activation at 5 μM” value on human GPR40 stood at 32.5%.

`Cl.Cl.O=C(O)CCc1ccc(OCc2ccc(CN3CCC4(CC3)CC(N3CCCC3)CCO4)cc2)cc1` (stereo not shown) [Compound 4e, 3-[4-({4-[(4-Pyrrolidin-1-yl-1-oxa-9-azaspiro[5.5]undec-9-yl)methyl]benzyl}oxy)phenyl]propanoic acid dihydrochloride]: the “% FFA1 activation at 5 μM” value at human GPR40 is reported as 9.1%. Also, the EC50 at human GPR40 (setting [3]) is more than 20 µM.

`CNC(=O)CC1CCOC2(CCN(Cc3ccc(COc4ccc(CCC(=O)O)cc4)cc3)CC2)C1.Cl` (stereo not shown) [Compound 4g, 3-(4-{[4-({4-[2-(Methylamino)-2-oxoethyl]-1-oxa-9-azaspiro[5.5]undec-9-yl}methyl)benzyl]oxy}phenyl)propanoic acid hydrochloride]: the “% FFA1 activation at 5 μM” value at human GPR40 is given as 9.9%. In addition, the EC50 at human GPR40 (setting [3]) is more than 20 µM.
